Q: With `CCCCCCCCCCCCCCCCCC(=O)N1C(CCCCCCCCCCCCCCCCC)NC(=O)CC1C(=O)O` (stereo not shown) [ALA17, 17, 2-Heptadecyl-6-oxo-3-stearoylhexahydropyrimidine-4-carboxylic acid] as the molecule, how does the melting point read?
A: 107 to 111 °C

Q: For `CCCCCC(=O)N1C(CCCCC)NC(=O)CC1C(=O)O` (stereo not shown) [Lipid 1a, 3-Hexanoyl-6-oxo-2-pentylhexahydropyrimidine-4-carboxylic acid], which melting point is on record?
A: 55 to 56 °C

Q: Which melting point does the source give for `CCCCCCCCCCCC(=O)N1C(CCCCC)NC(=O)CC1C(=O)O` (stereo not shown) [Lipid 1b, 3-Dodecanoyl-6-oxo-2-pentylhexahydropyrimidine-4-carboxylic acid] here?
A: 118 to 120 °C

Q: For `CCCCCCCCCCCC1NC(=O)CC(C(=O)O)N1C(=O)CCCCC` (stereo not shown) [Lipid 1c, 3-Hexanoyl-6-oxo-2-undecylhexahydropyrimidine-4-carboxylic acid], which melting point is on record?
A: 106 to 107 °C

Q: Which melting point does the source give for `CCCCCCCCCCCC(=O)N1C(CCCCCCCCCCC)NC(=O)CC1C(=O)O` (stereo not shown) [Lipid 1d, 3-Dodecanoyl-6-oxo-2-undecylhexahydropyrimidine-4-carboxylic acid] here?
A: 110 to 112 °C

Q: For `CCCCCCCCCCCCCCCCCC(=O)N1C(CCCCCCCCCCC)NC(=O)CC1C(=O)O` (stereo not shown) [Lipid 1e, 6-Oxo-3-stearoyl-2-undecylhexahydropyrimidine-4-carboxylic acid], which melting point is on record?
A: 105 to 109 °C

Q: With `CCCCCCCCCCCCCCCCCC1NC(=O)CC(C(=O)O)N1C(=O)CCCCCCCCCCC` (stereo not shown) [Lipid 1f, 3-Dodecanoyl-2-heptadecyl-6-oxohexahydropyrimidine-4-carboxylic acid] as the molecule, how does the melting point read?
A: 104 to 107 °C

From patent US20110268653A1, “Compositions and Methods Related to Acid Stable Lipid Nanospheres” (The Board of Regents of the University of Texas System, priority 2010, published 2011)
